According to patent US20120328569A1, “INHIBITORS OF HEPATITIS C VIRUS NS5B POLYMERASE” (priority 2010, published 2012):

test system: HCV genotype 1b replicon; assay: HCV replicon assay, cell ELISA with antibody to replicon-encoded NS3/4A (genotype 1b replicon); type: cell-based, hepatitis C virus; details: Hepatitis C virus, 96 h, read-out: 1b IC50(nM), HCV genotype 1b replicon; 96 hours incubation; NS3/4A cell ELISA
Summary of the method: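 An ELISA on lysed cells, using an antibody against NS3/4A protease, served as the proxy for replicon RNA. Cells had first been exposed for 96 h to serially diluted compound in G418-free conditions. Percent of DMSO control was fitted with a four-parameter function to give IC50.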

| SMILES | IC50 [nM] |
| --- | --- |
| CNC(=O)c1c(-c2ccc(F)cc2)oc2cc(N(CCCF)S(C)(=O)=O)c(-c3ccc(OC)c(-c4nc5ncccc5o4)c3)cc12 [Example 863] | 1.8 |
| CNC(=O)c1c(-c2ccc(F)cc2)oc2cc(N(CC3(C#N)CC3)S(C)(=O)=O)c(-c3ccc(OC)c(-c4nc5c(F)cc(F)cc5o4)c3)cc12 [Example 738] | 7.62 |
| CNC(=O)c1c(-c2ccc(F)cc2)oc2cc(N(CCC(F)(F)F)S(C)(=O)=O)c(-c3cccc(-c4nc5ncccc5o4)c3)cc12 [Example 872] | 4.7 |
| CNC(=O)c1c(-c2ccc(F)cc2)oc2cc(N(CCC3COC(C)(C)O3)S(C)(=O)=O)c(-c3ccc(OC)c(-c4nc5c(F)cccc5o4)c3)cc12 (centres unmarked) [Example 770] | 11.3 |
| CNC(=O)c1c(-c2ccc(F)cc2)oc2cc(N(C)S(C)(=O)=O)c(-c3ccc(Cl)c(-c4nc5c(F)cccc5o4)c3)cc12 [Example 865] | 4.7 |
| CNC(=O)c1c(-c2ccc(F)cc2)oc2cc(N(C)S(C)(=O)=O)c(-c3ccc(OC)c(-c4nc5cc(F)ccc5o4)c3)cc12 [Example 857] | 2.6 |
| CNC(=O)c1c(-c2ccc(F)cc2)oc2cc(N(C)S(C)(=O)=O)c(-c3cc(OC)cc(-c4nc5ncccc5o4)c3)cc12 [Example 866] | 3.1 |
| CNC(=O)c1c(-c2ccc(F)cc2)oc2cc(N(CCC(O)CC#N)S(C)(=O)=O)c(-c3ccc(OC)c(-c4nc5c(F)cccc5o4)c3)cc12 (centres unmarked) [Example 821] | 3.27 |
| CNC(=O)c1c(-c2ccc(F)cc2)oc2cc(N(C)S(C)(=O)=O)c(-c3ccc(OC)c(-c4nc5ccc(-c6cccnc6)cc5o4)c3)cc12 [Example 659] | 8.62 |
| CNC(=O)c1c(-c2ccc(F)cc2)oc2cc(N(CC(C)N)S(C)(=O)=O)c(-c3cccc(-c4nc5ncccc5o4)c3)cc12 (centres unmarked) [Example 830] | 8.47 |
| CNC(=O)c1c(-c2ccc(F)cc2)oc2cc(N(C)S(C)(=O)=O)c(-c3ccc(OCCO)c(-c4nc5c(F)cccc5o4)c3)cc12 [Example 620] | 1.66 |
| CNC(=O)c1c(-c2ccc(F)cc2)oc2cc(N(C)S(C)(=O)=O)c(-c3ccc(OC)c(-c4nc5cc(C(N)=O)ccc5o4)c3)cc12 [Example 632] | 4.61 |
| CNC(=O)c1c(-c2ccc(F)cc2)oc2cc(N(C)S(C)(=O)=O)c(-c3cc(OS(C)(=O)=O)cc(-c4nc5c(F)cccc5o4)c3)cc12 [Example 627] | 1.4 |

same assay, conditions: Hepatitis C virus, 96 h, read-out: Replicon 1b IC50 (nM), HCV genotype 1b replicon cells, 96 hours incubation, NS3/4A ELISA readout

| SMILES | IC50 [nM] |
| --- | --- |
| CNC(=O)c1c(-c2ccc(F)cc2)oc2cc(N(C)S(C)(=O)=O)c(-c3cc(F)cc(-c4nc5cnccc5o4)c3)cc12 [Example 212] | 2.6 |
| CNC(=O)c1c(-c2ccc(F)cc2)oc2cc(N(CCN(C)C)S(C)(=O)=O)c(-c3cccc(-c4nc5ncccc5o4)c3)cc12 [Compound 398] | 2.4 |
| CNC(=O)c1c(-c2ccc(F)cc2)oc2cc(N(CCCN(C)C)S(C)(=O)=O)c(-c3cccc(-c4nc5ncccc5o4)c3)cc12 [Compound 399] | 2.8 |
| CNC(=O)c1c(-c2ccc(F)cc2)oc2cc(N(C)S(C)(=O)=O)c(-c3ccc(OC)c(-c4nc5cncnc5[nH]4)c3)cc12 [Example 344] | 2.2 |
| CNC(=O)c1c(-c2ccc(F)cc2)oc2cc(N(C)S(C)(=O)=O)c(-c3cccc(-c4nc5ccc(NC(C)=O)cc5o4)c3)cc12 [Example 282] | 2.3 |
| CNC(=O)c1c(-c2ccc(F)cc2)oc2cc(N(C)S(C)(=O)=O)c(-c3cc(-c4nc5ccccc5o4)c(OC)cc3F)cc12 [Example 180] | 5 |
| CNC(=O)c1c(-c2ccc(F)cc2)oc2cc(N(C)S(C)(=O)=O)c(-c3cc(-c4nc5ccccc5s4)ccc3F)cc12 [Example 290] | 6.9 |
| CNC(=O)c1c(-c2ccc(F)cc2)oc2cc(N(C)S(C)(=O)=O)c(-c3cccc(-c4nc5nccnc5s4)c3)cc12 [Example 272] | 3 |
| CNC(=O)c1c(-c2ccc(F)cc2)oc2cc(N(C)S(C)(=O)=O)c(-c3cccc(-c4nc5cc(Cl)cnc5[nH]4)c3)cc12 [Example 331] | 1.8 |
| CCN(c1cc2oc(-c3ccc(F)cc3)c(C(=O)NOC)c2cc1-c1ccccc1)S(C)(=O)=O [Example 9, 6-[ethyl (methylsulfonyl)amino]-2-(4-fluorophenyl)-N-methoxy-5-phenyl-1-benzofuran-3-carboxamide] | 99 |
| CNC(=O)c1c(-c2ccc(F)cc2)oc2cc(N(C)S(C)(=O)=O)c(-c3cc(F)cc(-c4nc5c(N)ncnc5[nH]4)c3)cc12 [Example 350] | 0.7 |
| CNC(=O)c1c(-c2ccc(F)cc2)oc2cc(N(C)S(C)(=O)=O)c(-c3cccc(-c4nc5ccc(OS(C)(=O)=O)nc5[nH]4)c3)cc12 [Example 329] | 4.9 |
| CNC(=O)c1c(-c2ccc(F)cc2)oc2cc(N(CCO)S(C)(=O)=O)c(-c3ccccc3)cc12 [Example 2, 2-(4-fluorophenyl)-6-[(2-hydroxyethyl) (methylsulfonyl)amino]-N-methyl-5-phenyl-1-benzofuran-3-carboxamide] | 114 |
| CNC(=O)c1c(-c2ccc(F)cc2)oc2cc(N(C)S(C)(=O)=O)c(-c3ccc(OC)c(-c4nc5ccc(Cl)cc5o4)c3)cc12 [Example 188] | 5.1 |
| CNC(=O)c1c(-c2ccc(F)cc2)oc2cc(N(C)S(C)(=O)=O)c(-c3cc(Cl)cc(-c4nc5ncccc5o4)c3)cc12 [Example 203] | 2.4 |
| CNC(=O)c1c(-c2ccc(F)cc2)oc2cc(N(C)S(C)(=O)=O)c(-c3ccc(F)c(-c4nc5ccncc5[nH]4)c3)cc12 [Example 334] | 3.3 |
| CNC(=O)c1c(-c2ccc(F)cc2)oc2cc(N(C)S(C)(=O)=O)c(-c3cc(OC)cc(-c4cc5ccccc5[nH]4)c3)cc12 [Compound 375] | 2.7 |
| CNC(=O)c1c(-c2ccc(F)cc2)oc2cc(N(C)S(C)(=O)=O)c(-c3cccc(-c4nc5cccnc5o4)c3)cc12 [Example 217] | 2.1 |

| SMILES | IC50 [nM] |
| --- | --- |
| CONC(=O)c1c(-c2ccc(F)cc2)oc2cc(N(C)S(C)(=O)=O)c(-c3cccc(OC)c3)cc12 [Example 97, 2-(4-fluorophenyl)-N-methoxy-5-(3-methoxyphenyl)-6-[methyl (methylsulfonyl)amino]-1-benzofuran-3-carboxamide] | 126 |
| CNC(=O)c1c(-c2ccc(F)cc2)oc2cc(N(C)S(C)(=O)=O)c(-c3cccc(-c4nc5c(C)ccnc5[nH]4)c3O)cc12 [Example 318] | 18.7 |
| CNC(=O)c1c(-c2ccc(F)cc2)oc2cc(N(C)S(C)(=O)=O)c(-c3cc(F)c(F)c(-c4nc5cccnc5o4)c3)cc12 [Example 244] | 1.3 |
| CNC(=O)c1c(-c2ccc(F)cc2)oc2cc(N(C)S(C)(=O)=O)c(-c3cc(F)cc(F)c3)cc12 [Example 111, 5-(3,5-difluorophenyl)-2-(4-fluorophenyl)-N-methyl-6-[methyl(methylsulfonyl)amino]-1-benzofuran-3-carboxamide] | 40 |
| CONC(=O)c1c(-c2ccc(F)cc2)oc2cc(N(C)S(C)(=O)=O)c(-c3ccccc3OC)cc12 [Example 91, 2-(4-fluorophenyl)-N-methoxy-5-(2-methoxyphenyl)-6-[methyl (methylsulfonyl)amino]-1-benzofuran-3-carboxamide] | 342 |
| CNC(=O)c1c(-c2ccc(F)cc2)oc2cc(N(C)S(C)(=O)=O)c(-c3cccc(-c4nc5cccc(C#N)c5s4)c3)cc12 [Example 295] | 4.1 |
| CNC(=O)c1c(-c2ccc(F)cc2)oc2cc(N(C)S(C)(=O)=O)c(-c3cc(F)c(F)c(-c4nc5ccccc5o4)c3)cc12 [Example 194] | 4.2 |
| CNC(=O)c1c(-c2ccc(F)cc2)oc2cc(N(C)S(C)(=O)=O)c(-c3cccc(-c4nc5ncncc5o4)c3)cc12 [Example 241] | 9.5 |
| CNC(=O)c1c(-c2ccc(F)cc2)oc2cc(N(C)S(C)(=O)=O)c(-c3cccc(-c4nc5cncnc5o4)c3)cc12 [Example 242] | 4.8 |
| CNC(=O)c1c(-c2ccc(F)cc2)oc2cc(N(C)S(C)(=O)=O)c(-c3cccc(-c4nc5ncccc5o4)c3OC)cc12 [Example 205] | 11.9 |
| CNC(=O)c1c(-c2ccc(F)cc2)oc2cc(N(C)S(C)(=O)=O)c(-c3ccc(OC)c(-c4nc5cccnc5[nH]4)c3)cc12 [Example 312] | 1.1 |
| CNC(=O)c1c(-c2ccc(F)cc2)oc2cc(N(C)S(=O)(=O)c3ccccc3)c(-c3cccc(-c4nc5ncccc5o4)c3)cc12 [Example 400, 2-(4-fluorophenyl)-N-methyl-6-(N-methylphenylsulfonamido)-5(3-(oxazolo[4,5-b]pyridin-2-yl)phenyl)benzofuran-3-carboxamide] | 303 |
| CNC(=O)c1c(-c2ccc(F)cc2)oc2cc(N(CC(C)O)S(C)(=O)=O)c(-c3ccccc3)cc12 (centres unmarked) [Example 29, 2-(4-fluorophenyl)-6-[(2-hydroxypropyl) (methylsulfonyl)amino]-N-methyl-5-phenyl-1-benzofuran-3-carboxamidc] | 412 |
| CNC(=O)c1c(-c2ccc(F)cc2)oc2cc(N(C)S(C)(=O)=O)c(-c3cccc(-c4cc5cc(F)ccc5[nH]4)c3)cc12 [Compound 367] | 3.9 |
| CNC(=O)c1c(-c2ccc(F)cc2)oc2cc(N(C)S(C)(=O)=O)c(-c3ccc(OC)c(-c4nc5ncc(Cl)cc5o4)c3)cc12 [Example 239] | 2.6 |
| CNC(=O)c1c(-c2ccc(F)cc2)oc2cc(NCCN(C)c3ccccc3)c(-c3ccccc3)cc12 [Example 70, 2-(4-fluorophenyl)-N-methyl-6-({2-[methyl(phenyl)amino]ethyl}amino)-5-phenyl-1-benzofuran-3-carboxamide] | 329 |
| CNC(=O)c1c(-c2ccc(F)cc2)oc2cc(N(C)S(C)(=O)=O)c(-c3ccc(OC(F)(F)F)c(-c4nc5cccnc5o4)c3)cc12 [Example 231] | 6.6 |
| CNC(=O)c1c(-c2ccc(F)cc2)oc2cc(N(C)S(C)(=O)=O)c(-c3cccc(-c4nc5cnccc5o4)c3)cc12 [Example 211] | 3.3 |

same assay, conditions: read-out: 1b IC50; HCV genotype 1b replicon; 96 hours incubation; NS3/4A cell ELISA

| SMILES | IC50 [nM] |
| --- | --- |
| CNC(=O)c1c(-c2ccc(F)cc2)oc2cc(N(CCF)S(C)(=O)=O)c(-c3cccc(-c4nc5ncccc5o4)c3)cc12 [Example 581] | 0.5 |
